Columns and labels:
[1] = target: T1, rat Nluc-A2BR (Rattus norvegicus, UniProt P29276, M1L); assay: NanoBRET competition binding with CA200645, intact HEK293T cells; assay type: cell-based; settings: for Ki: read-out: Nluc-rat A2B (pKD or pKi) (converted)
T1 construct: gene Adora2b; internal XhoI site removed (silent by primer); transient in intact HEK293T cells
T1 sequence (P29276 1-332 M1L): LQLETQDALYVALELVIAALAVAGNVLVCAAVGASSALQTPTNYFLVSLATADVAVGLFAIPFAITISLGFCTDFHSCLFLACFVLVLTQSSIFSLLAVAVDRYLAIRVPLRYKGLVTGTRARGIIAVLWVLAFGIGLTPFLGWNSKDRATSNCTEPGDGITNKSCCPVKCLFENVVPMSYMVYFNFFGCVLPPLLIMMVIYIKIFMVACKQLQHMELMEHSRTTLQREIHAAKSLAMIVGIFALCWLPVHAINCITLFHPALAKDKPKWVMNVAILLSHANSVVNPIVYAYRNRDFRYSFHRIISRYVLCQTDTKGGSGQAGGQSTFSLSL
Text: NanoBRET competition binding with CA200645, intact HEK293T cells on rat Nluc-A2BR

[2] = target: T2, rat Nluc-A2AR (Rattus norvegicus, UniProt P30543, M1L); assay: as above; assay type: cell-based; settings: read-out: Nluc-rat A2A (pKD or pKi) (converted)
T2 construct: gene Adora2a; internal BamHI site removed (silent by primer); transient in intact HEK293T cells
Text: NanoBRET competition binding with CA200645, intact HEK293T cells on rat Nluc-A2AR

T2 sequence (P30543 whole entry M1L): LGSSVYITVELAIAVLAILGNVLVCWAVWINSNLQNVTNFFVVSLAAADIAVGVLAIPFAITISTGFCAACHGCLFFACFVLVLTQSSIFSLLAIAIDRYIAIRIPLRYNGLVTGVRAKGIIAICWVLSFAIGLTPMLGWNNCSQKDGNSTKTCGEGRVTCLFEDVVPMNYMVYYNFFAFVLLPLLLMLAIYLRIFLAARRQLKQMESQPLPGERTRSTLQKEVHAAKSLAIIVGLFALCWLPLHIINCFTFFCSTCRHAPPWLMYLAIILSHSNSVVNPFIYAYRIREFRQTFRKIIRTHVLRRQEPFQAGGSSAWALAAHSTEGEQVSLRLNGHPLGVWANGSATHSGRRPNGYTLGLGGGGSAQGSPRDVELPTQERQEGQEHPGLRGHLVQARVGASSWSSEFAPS

`Nc1nc2c(cnn2CCc2ccccc2)c2nc(-c3ccco3)nn12` [SCH 58261, 2‐(2‐Furanyl)‐7‐(2‐phenylethyl)‐7H‐pyrazolo[4,3‐e][1,2,4]triazolo[1,5‐c]pyrimidin‐5‐amine] showed a Ki [1] of 708 nM.

With `CCCn1c(=O)[nH]c2nc(-c3ccc(S(=O)(=O)N4CCN(c5ccc(Cl)cc5)CC4)cc3)[nH]c2c1=O` [PSB 603] the Ki [1] was 2 nM and the Ki [2] was 490 nM.

`CCCn1c(=O)[nH]c2nc(-c3ccc(S(=O)(=O)O)cc3)[nH]c2c1=O` [PSB 1115, 4‐(2,3,6,7‐Tetrahydro‐2,6‐dioxo‐1‐propyl‐1H‐purin‐8‐yl)‐benzenesulfonic acid] was tested, and the Ki [1] was 537 nM and the Ki [2] was 2880 nM.

With `N#Cc1c(N)nc(SCC(N)=O)c(C#N)c1-c1ccc(OCC2CC2)cc1` [BAY 60‐6583, 2‐[[6‐Amino‐3,5‐dicyano‐4‐[4‐(cyclopropylmethoxy)phenyl]‐2‐pyridinyl]thio]‐acetamide] the “Nluc-rat A2B (pKD or pKi)” value ([1]; […] CA200645, HBSS pH […] BSA, […] DMSO, […] °C, […] h, Cheng-Prusoff) was 6.33 ± 0.03.
